Experimental data published in patent US8143421B2, “Broadspectrum substituted benzimidazole sulfonamide HIV protease inhibitors” (priority 2002, dated 2012).

Experiments:
[1] = tested on: HIV-1 strain LAI; assay: Cellular anti-HIV assay, MT4 cells, MTT readout, wild type HIV-1 strain LAI; assay type: cell-based; details: for WT (pIC50 against wild type HIV-LAI strain): Table 4
Method: The compounds of the present invention were examined for anti-viral activity in a cellular assay. […] The cellular assay was performed according to the following procedure.

[2] = tested on: mutant E; assay type: cell-based; details: FR=IC50(mutant strain)/IC50(HIV-1 strain LAI)
Method: (§1) HIV- or mock-infected MT4 cells were incubated for five days in the presence of various concentrations of the inhibitor. […] Cell viability is measured by measuring the concentration of MTT, a yellow, water soluble tetrazolium dye that is converted to a purple, water insoluble formazan in the mitochondria of living cells only. Upon solubilization of the resulting formazan crystals with isopropanol, the absorbance of the solution is monitored at 540 nm. The values correlate directly to the number of living cells remaining in the culture at the completion of the five day incubation. The inhibitory activity of the compound was monitored on the virus-infected cells and was expressed as IC50 and IC90. These values represent the amount of the compound required to protect 50% and 90%, respectively, of the cells from the cytopathogenic effect of the virus. […] The selectivity index (SI) (ratio CC50/IC50) is an indication of the selectivity of the anti-HIV activity of the inhibitor. Wherever results are reported as e.g. pIC50 or pCC50 values, the result is expressed as the negative logarithm of the result expressed as IC50 or CC50 respectively.
(§2) Because of the increasing emergence of drug resistant HIV strains, the present compounds were tested for their potency against clinically isolated HIV strains harboring several mutations. […] The viral strains R13025, R13027, R13028, R13029, R13034, R13080, T13127 and R13363 contained mutations as indicated below in Table 3.
(§3) As a measure of the broad spectrum activity of the present compounds, the fold resistance (FR), defined as FR=IC50(mutant strain)/IC50(HIV-1 strain LAI), was determined.

[3] = tested on: mutant A; assay type: cell-based; details: FR=IC50(mutant strain)/IC50(HIV-1 strain LAI)
Method: as §1, §2, §3

[4] = tested on: mutant H; assay: Antiviral spectrum, fold resistance towards mutant H; assay type: cell-based; details: FR=IC50(mutant strain)/IC50(HIV-1 strain LAI)
Method: Because of the increasing emergence of drug resistant HIV strains, the present compounds were tested for their potency against clinically isolated HIV strains harboring several mutations. These mutations are associated with resistance to protease inhibitors and result in viruses that show various degrees of phenotypic cross-resistance to the currently commercially available drugs such as for instance saquinavir, ritonavir, nelfinavir, indinavir and amprenavir. The viral strains R13025, R13027, R13028, R13029, R13034, R13080, T13127 and R13363 contained mutations as indicated below in Table 3.

[5] = tested on: mock-infected MT4 cells; assay: Toxicity on mock-infected MT4 cells (CC50)
Method: as §1, §3

[6] = Table 2, MT4 cells, five days, HIV-1 strain LAI
[7] = pCC50 value as determined with mock transfected cells
[8] = Table 1, MT4 cells, five days, HIV-1 strain LAI

Row | Compound | pIC50 (LAI) [1, 6] | FR towards mutant E [2] | FR value towards mutant A [3] | FR towards mutant H [4] | Tox (pCC50) [5, 7] | pIC50 (LAI) [1, 8] | WT (pIC50 against wild type HIV-LAI strain) [1] | Tox (pCC50) [5] | IC50 ([1]; Human immunodeficiency virus 1, 120 h, Table 1, MT4 cells, five days, HIV-1 strain LAI, read-out: pIC50 (LAI) (converted)) [nM]
1 | CC(C)CN(CC(O)C(Cc1ccccc1)NC(=O)OC1COC2OCCC12)S(=O)(=O)c1ccc2c(c1)ncn2CCN(C)C (stereo not drawn) [Compound 60] | 6.5 |  |  |  |  |  |  |  | 
2 | CC(C)CN(C[C@@H](O)[C@H](Cc1ccccc1)NC(=O)OC(C)(C)C)S(=O)(=O)c1ccc2ncn(CCc3ccccc3)c2c1 [Compound 43] |  | 12.6 | 22 | 28 | 4.99 | 6.4 | 6.4 |  | 
3 | CC(C)CN(C[C@@H](O)[C@H](Cc1ccccc1)NC(=O)O[C@H]1CCOC1)S(=O)(=O)c1ccc2nc(N)[nH]c2c1 [Compound 53] |  |  |  |  |  | 6.0 | 6.0 | 4.05 | 
4 | CC(C)CN(C[C@@H](O)[C@H](Cc1ccccc1)NC(=O)OCc1cccnc1)S(=O)(=O)c1ccc2nc[nH]c2c1 [Compound 35] |  | 17 | 91 | 148 | <4 | 7.0 | 7.0 |  | 
5 | CC(C)CN(C[C@@H](O)[C@H](Cc1ccccc1)NC(=O)OCc1cncs1)S(=O)(=O)c1ccc2ncn(Cc3ccccc3)c2c1 [Compound 30] |  | 13 | 18 | 65 |  | 7.1 | 7.1 |  | 
6 | Cc1cccc(C)c1OCC(=O)N[C@@H](Cc1ccccc1)[C@H](O)CN(CC(C)C)S(=O)(=O)c1ccc2nc[nH]c2c1 [Compound 29] |  | 13 | 14 | 78 |  | 7.1 | 7.1 | 4.21 | 
7 | Cc1cc(N)cc(C)c1OCC(=O)N[C@@H](Cc1ccccc1)[C@H](O)CN(CC(C)C)S(=O)(=O)c1ccc2c(c1)ncn2CCN(C)C [Compound 62] | 5.7 |  |  |  |  |  |  |  | 
8 | Cc1cccc(C)c1OCC(=O)N[C@@H](Cc1ccccc1)[C@H](O)CN(CC(C)C)S(=O)(=O)c1ccc2nc(N)[nH]c2c1 [Compound 36] |  | 3.1 | 4.4 | 17 |  | 6.5 | 6.5 | 4.19 | 
9 | Cc1cccc(C)c1OCC(=O)N[C@@H](Cc1ccccc1)[C@H](O)CN(CC(C)C)S(=O)(=O)c1ccc2ncn(CC(C)C)c2c1 [Compound 45] |  | 7.4 | 9.3 |  |  | 6.3 | 6.3 | <4 | 
10 | CC(C)CN(CC(O)C(Cc1ccccc1)NC(=O)OC1COC2OCCC12)S(=O)(=O)c1ccc2ncn(Cc3cncn3C)c2c1 (stereo not drawn) [Compound 51] |  | 0.89 | 2.8 | 2.1 |  | 6.2 | 6.2 |  | 
11 | Cc1cccc(C)c1OCC(=O)N[C@@H](Cc1ccccc1)[C@H](O)CN(CC(C)C)S(=O)(=O)c1ccc2ncn(CCc3ccccc3)c2c1 [Compound 47] |  | 7.8 | 14 | 66 | <4 | 6.4 | 6.4 |  | 
12 | Cc1c(N)cccc1C(=O)N[C@@H](Cc1ccccc1)[C@H](O)CN(CC(C)C)S(=O)(=O)c1ccc2nc[nH]c2c1 [Compound 46] |  |  |  |  | <4 | 6.4 | 6.4 |  | 
13 | COC(=O)Nc1nc2ccc(S(=O)(=O)N(CC(C)C)CC(O)C(Cc3ccccc3)NC(=O)OC3COC4OCCC34)cc2[nH]1 (stereo not drawn) [Compound 10] |  |  |  |  |  | 8.0 |  |  | 
14 | COC(=O)Nc1nc2ccc(S(=O)(=O)N(CC(C)C)C[C@@H](O)[C@H](Cc3ccccc3)NC(=O)c3ccc(O)cc3C)cc2[nH]1 [Compound 25] |  | 1.3 | 1.2 | 4.6 |  | 7.1 | 7.1 | 4.3 | 
15 | CC(C)CN(C[C@@H](O)[C@H](Cc1ccccc1)NC(=O)O[C@H]1CO[C@H]2OCC[C@H]21)S(=O)(=O)c1ccc2ncn(CCN3CCCC3)c2c1 [Compound 20, [(1S,2R)-2-hydroxy-1-(phenyl-methyl)-3-[[[1-[2-(pyrrolidin-1-yl)ethyl]benzimidazol-6-yl]sulfonyl](2-methylpropyl)-amino]propyl]carbamic acid, [(3R,3aS,6aR)-hexahydrofuro[2,3-b]furan-3-yl]ester] |  |  |  |  |  |  |  |  | 39.8
16 | CC(C)CN(C[C@@H](O)[C@H](Cc1ccccc1)NC(=O)OCc1cncs1)S(=O)(=O)c1ccc2ncn(CCc3ccccc3)c2c1 [Compound 34] |  | 17 | 32 | 46 | <4 | 7.0 | 7.0 |  | 
17 | CC(=O)Nc1nc2ccc(S(=O)(=O)N(CC(C)C)C[C@@H](O)[C@H](Cc3ccccc3)NC(=O)O[C@H]3CCOC3)cc2[nH]1 [Compound 27] |  | 1.1 | 2.7 | 2.3 |  | 7.3 | 7.3 | <4 | 
18 | CC(C)CN(C[C@@H](O)[C@H](Cc1ccccc1)NC(=O)O[C@H]1CCOC1)S(=O)(=O)c1ccc2nc[nH]c2c1 [Compound 42] |  | 8.7 |  | 52 |  | 7.1 | 7.1 | <4 | 
19 | CC(C)CN(C[C@@H](O)[C@H](Cc1ccccc1)NC(=O)O[C@H]1CCOC1)S(=O)(=O)c1ccc2ncn(CC(C)C)c2c1 [Compound 14] |  |  |  |  |  | 7.7 |  |  | 
20 | CC(C)CN(CC(O)C(Cc1ccccc1)NC(=O)OC1COC2OCCC12)S(=O)(=O)c1ccc2ncn(Cc3ccncc3)c2c1 (stereo not drawn) [Compound 28] |  | 1.3 | 1.5 | 2.6 |  | 7.5 | 7.5 |  | 
21 | CC(C)CN(C[C@@H](O)[C@H](Cc1ccccc1)NC(=O)O[C@H]1CO[C@H]2OCC[C@H]21)S(=O)(=O)c1ccc2nc(NCCN3CCCC3)n(CCc3ccccc3)c2c1 [Compound 40, [(1S,2R)-2-hydroxy-3-[[[[1-(phenethyl)-2-[2-(pyrrolidin-1-yl)ethylamino]]benzimidazol-6-yl]sulfonyl](2-methylpropyl)amino]-1-(phenylmethyl)propyl]carbamic acid, [(3R,3aS,6aR)-hexahydrofuro[2,3-b]furan-3-yl]ester] |  | 4.0 | 10 | 7.9 |  | 6.4 | 6.4 |  | 
22 | CC(C)CN(C[C@@H](O)[C@H](Cc1ccccc1)NC(=O)OC(C)(C)C)S(=O)(=O)c1ccc2nc(N)n(Cc3ccccc3)c2c1 [Compound 39] |  | 3.5 | 32 |  |  | 6.9 | 6.9 |  | 
